From patent publication US20240067603A1, “CUBANYL BIGUANIDE COMPOUNDS” (REGENTS OF THE UNIVERSITY OF MINNESOTA, priority 2020, published 2024)

Columns and labels:
[1] = tested on: breast cancer cell lines; conditions: background statement; read-out: IC50, growth of breast cancer cell lines; cited from earlier work
[2] = tested on: AMPKα; experiment: AMPKα phosphorylation (Thr172) in MCF-7 cells, Western blotting; assay type: cell-based, human; conditions: 10 μM, with and without serum, FIG. 7
Protocol: FIG. 7. Effect of HCB on MCF-7 AMPKα phosphorylation (Thr172). MCF-7 cells were grown in complete media to 70% confluency and treated with 10 μM HCB. Cells were harvested at varied time (0-24 hr) and total proteins were extracted and analyzed by Western blotting. For 0% serum experiment, complete media was replaced with serum, phenol red and antibiotics free media 16 hours before treatment. Quantitation results are expressed as mean±S.D. (n=3, * indicates statistically significant difference, p<0.05). MCF-7 cells were grown in complete media (10% serum) to 80% confluence. Left panel: HCB was added to a final concentration of 10 μM in complete media; Right panel: complete media was replaced with serum free media and serum starved for 16 hours before HCB was added to a final concentration of 10 μM. At indicated time points after the addition of HCB, cells were harvested and analyzed by Western blotting. AMPK activation was reported as fractional Thr172 phosphorylation±S.D. (n=3, * indicates statistically significant difference from control).

[3] = tested on: MCF-7 cells; experiment: Oxygen consumption rate (OCR), Seahorse XFe, MCF-7; assay type: cell-based, human
Protocol: FIGS. 3A-3B. Effects of DCB (FIG. 3B) and HCB (FIG. 3A) on MCF-7 cells respiration. MCF-7 cells were seeded at 25,000 cells/well into a 96-well XF96 cell microplate. Growth media was replaced with 150 μL metabolism assay media the next day and cells were incubated CO2 free for 1 hour before the measurement of oxygen consumption rate (OCR) every seven minutes by a Seahorse XFe analyzer. Drugs were injected into the media after the fifth measurement (indicated by time point A and the dashed line). Results are reported as mean of percent of base OCR (OCR of the fifth measurement)±S.D. (n=12 for DMSO and 16 for treatment groups).
Measurement of oxygen consumption rate (OCR). Cells were maintained in growth medium consisting of 10% FBS at 37° C. with 5% CO2 and seeded at 25,000 cells per well in a 96-well XF96 cell culture microplates (Agilent, Santa Clara, CA). An 96 well XF sensor cartridge was hydrated and equilibrated with 200 ul calibrant in each well at 37° C. without CO2 overnight. […] OCRs were measured periodically and can be reported in pmoles/minute or normalized against baseline measurements before treatment.

[4] = tested on: MCF-7 cells; experiment: TMRE mitochondrial membrane potential in MCF-7 cells; assay type: cell-based, human; conditions: 10 μM, FIGS. 4A-4B
Protocol: FIG. 4A. Effect of HCB on mitochondrial cross membrane potential Δψ in MCF-7 cells. MCF-7 cells were seeded at 20,000 cells/well into a clear bottom black 96 well microplate. After treatments were added for 2 hours (FCCP control for 10 minutes), TMRE (tetramethylrhodamine, ethyl ester, Ex/Em 549/575) was added to a final concentration of 400 nM and incubation continued for additional 30 minutes. Media was removed and cells washed twice with PBS and 100 ul of PBS was added in the end. TMRE fluorescence was then measured with a plate reader. Results are reported as mean fluorescence intensity±S.D. (n=8, * indicates statistically significant difference from the DMSO control).
FIG. 4B. Effect of DCB and HCB on mitochondrial trans-membrane potential Δψ in MCF-7 cells. […] TMRE fluorescence was then measured with a plate reader. Results are reported as mean fluorescence intensity±S.D. (n=8, * indicates statistically significant difference from the DMSO control).
Mitochondrial cross membrane potential (Δψ) alteration in MCF-7 cells were measured by monitoring Δψ sensitive TMRE fluorescence intensity. […] TMRE fluorescence was then measured with a plate reader. Results are reported as mean fluorescence intensity±S.D. (n=8, * indicates statistically significant difference from the DMSO control).
TMRE Δψm measurement. […] Fluorescence was read at Ex 549 nm/Em 575 nm. […]

| SMILES | IC50 [1] [µM] | AMPK phosphorylation [2] | effect on oxidative phosphorylation (OCR) ([3]; 10 μM, MCF-7 cells, FIGS. 3A-3B) | OCR Inhibition [HCB] (uM) v vs. control (P < 0.05) ([3]; MCF-7) [µM] | effect on mitochondrial membrane potential [4] |
| --- | --- | --- | --- | --- | --- |
| CCCCCCNC(=N)NC(=N)NCc1ccccc1 [HBB, N1-hexyl-N5-benzyl-biguanide] | 3 to 30 | – | – | – | – |
| CCCCCCNC(=N)NC(=N)NCC12C3C4C5C3C1C5C42 (centres unmarked) [HCB, Hexyl Cubanomethyl Biguanide] | – | potent activation | inhibited oxidative phosphorylation | 10 | inhibited the mitochondrial membrane potential |
